Results published in PMC5869712 (Scientific Reports, 2018).

Experiments:
DYRK1A = molecular target: T1, DYRK1A (Homo sapiens, UniProt Q13627); assay: Eurofins Kinase Profiler panel; format: biochemical; details: read-out: % inhibition (1μM), DMSO control=100%, lower=stronger
T1 construct: purchased Eurofins KinaseProfiler (Eurofins Pharma Discovery Services UK, Dundee); JAK3 also ChemPartner
From the text: (§1) The assay protocol guides are commercially available from ChemPartner.

Pim-2 = molecular target: T2, Pim-2 (Homo sapiens, UniProt Q9P1W9); assay: Eurofins Kinase Profiler panel; format: biochemical; details: read-out: % inhibition (1μM), DMSO control=100%, lower=stronger
T2 construct: purchased Eurofins KinaseProfiler (Eurofins Pharma Discovery Services UK, Dundee); JAK3 also ChemPartner
From the text: as §1

Flt1 = molecular target: T3, Flt1 (Homo sapiens, UniProt P17948); assay: Eurofins Kinase Profiler panel; format: biochemical; details: read-out: % inhibition (1μM), DMSO control=100%, lower=stronger
T3 construct: purchased Eurofins Pharma Discovery Services UK Limited (Kinase Profiler screening platform)
From the text: as §1

SAPK2b = molecular target: T4, SAPK2b (Homo sapiens, UniProt Q15759); assay: Eurofins Kinase Profiler panel; format: biochemical; details: read-out: % inhibition (1μM), DMSO control=100%, lower=stronger
T4 construct: purchased Eurofins KinaseProfiler (Eurofins Pharma Discovery Services UK, Dundee); JAK3 also ChemPartner
From the text: as §1

Ret = molecular target: T5, Ret (Homo sapiens, UniProt P07949); assay: Eurofins Kinase Profiler panel; format: biochemical; details: read-out: % inhibition (1μM), DMSO control=100%, lower=stronger
T5 construct: purchased Eurofins KinaseProfiler (Eurofins Pharma Discovery Services UK, Dundee); JAK3 also ChemPartner
From the text: as §1

TrkA = molecular target: T6, TrkA (Homo sapiens, UniProt P04629); assay: Eurofins Kinase Profiler panel; format: biochemical; details: read-out: % inhibition (1μM), DMSO control=100%, lower=stronger
T6 construct: purchased Eurofins Pharma Discovery Services UK Limited (Kinase Profiler screening platform)
T6 sequence (P04629 33-796): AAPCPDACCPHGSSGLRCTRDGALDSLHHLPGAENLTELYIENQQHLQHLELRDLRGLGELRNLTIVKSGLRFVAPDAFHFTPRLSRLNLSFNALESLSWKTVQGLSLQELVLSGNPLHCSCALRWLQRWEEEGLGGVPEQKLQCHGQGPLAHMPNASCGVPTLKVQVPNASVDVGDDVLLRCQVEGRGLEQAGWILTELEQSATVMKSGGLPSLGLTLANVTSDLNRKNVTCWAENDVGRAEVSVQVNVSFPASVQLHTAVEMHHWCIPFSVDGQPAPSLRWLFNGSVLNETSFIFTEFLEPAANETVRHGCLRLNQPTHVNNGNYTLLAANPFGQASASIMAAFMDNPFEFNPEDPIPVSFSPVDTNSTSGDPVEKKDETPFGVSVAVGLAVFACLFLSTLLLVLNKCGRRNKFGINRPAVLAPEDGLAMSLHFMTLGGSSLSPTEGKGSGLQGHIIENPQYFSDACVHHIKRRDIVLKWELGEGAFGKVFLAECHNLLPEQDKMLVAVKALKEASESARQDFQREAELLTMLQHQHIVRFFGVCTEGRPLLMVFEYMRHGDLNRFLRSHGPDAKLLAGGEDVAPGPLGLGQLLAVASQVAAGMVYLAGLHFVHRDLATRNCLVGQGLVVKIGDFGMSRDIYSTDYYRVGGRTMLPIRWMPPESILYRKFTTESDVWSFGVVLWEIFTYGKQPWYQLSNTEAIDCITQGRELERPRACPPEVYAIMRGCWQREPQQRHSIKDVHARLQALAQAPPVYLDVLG
From the text: as §1

Plk3 = molecular target: T7, Plk3 (Homo sapiens, UniProt Q9H4B4); assay: Eurofins Kinase Profiler panel; format: biochemical; details: read-out: % inhibition (1μM), DMSO control=100%, lower=stronger
T7 construct: purchased Eurofins KinaseProfiler (Eurofins Pharma Discovery Services UK, Dundee); JAK3 also ChemPartner
T7 sequence (Q9H4B4 whole entry): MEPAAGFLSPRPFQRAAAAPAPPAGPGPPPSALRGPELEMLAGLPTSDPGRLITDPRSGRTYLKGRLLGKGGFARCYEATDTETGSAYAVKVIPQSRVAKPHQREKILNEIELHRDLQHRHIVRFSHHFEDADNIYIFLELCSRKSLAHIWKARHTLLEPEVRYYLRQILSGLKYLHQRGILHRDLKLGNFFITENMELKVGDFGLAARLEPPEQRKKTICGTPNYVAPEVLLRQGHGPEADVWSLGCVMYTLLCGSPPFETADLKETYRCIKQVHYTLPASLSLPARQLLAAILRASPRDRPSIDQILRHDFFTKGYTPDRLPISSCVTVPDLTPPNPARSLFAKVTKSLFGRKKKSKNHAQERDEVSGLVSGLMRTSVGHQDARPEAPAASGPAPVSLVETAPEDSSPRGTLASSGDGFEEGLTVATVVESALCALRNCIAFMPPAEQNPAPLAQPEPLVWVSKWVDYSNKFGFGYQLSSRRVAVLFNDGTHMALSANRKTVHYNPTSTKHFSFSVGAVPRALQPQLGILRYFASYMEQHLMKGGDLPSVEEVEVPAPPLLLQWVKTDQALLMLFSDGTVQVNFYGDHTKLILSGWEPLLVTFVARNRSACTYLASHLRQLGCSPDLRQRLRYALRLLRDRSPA
From the text: as §1

PKCζ = molecular target: T8, PKCζ (Homo sapiens, UniProt Q05513); assay: Eurofins Kinase Profiler panel; format: biochemical; details: read-out: % inhibition (1μM), DMSO control=100%, lower=stronger
T8 construct: purchased Eurofins KinaseProfiler (Eurofins Pharma Discovery Services UK, Dundee); JAK3 also ChemPartner
From the text: as §1

NEK2 = molecular target: T9, NEK2 (Homo sapiens, UniProt P51955); assay: Eurofins Kinase Profiler panel; format: biochemical; details: read-out: % inhibition (1μM), DMSO control=100%, lower=stronger
T9 construct: purchased Eurofins Pharma Discovery Services UK Limited (Kinase Profiler screening platform)
T9 sequence (P51955 whole entry): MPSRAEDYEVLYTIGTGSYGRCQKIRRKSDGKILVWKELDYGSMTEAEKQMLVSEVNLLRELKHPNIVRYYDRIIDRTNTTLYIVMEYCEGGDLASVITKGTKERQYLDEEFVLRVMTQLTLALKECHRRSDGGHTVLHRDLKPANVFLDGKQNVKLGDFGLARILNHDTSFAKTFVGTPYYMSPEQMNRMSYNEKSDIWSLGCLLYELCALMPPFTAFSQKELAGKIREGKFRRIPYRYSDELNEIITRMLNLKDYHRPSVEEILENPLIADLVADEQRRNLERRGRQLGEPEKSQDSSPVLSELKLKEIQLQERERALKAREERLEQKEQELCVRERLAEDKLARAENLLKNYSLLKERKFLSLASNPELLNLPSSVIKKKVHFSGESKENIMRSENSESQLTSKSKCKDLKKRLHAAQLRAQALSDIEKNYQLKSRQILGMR
From the text: as §1

ZIPK = molecular target: T10, ZIPK (Homo sapiens, UniProt O43293); assay: Eurofins Kinase Profiler panel; format: biochemical; details: read-out: % inhibition (1μM), DMSO control=100%, lower=stronger
T10 construct: purchased Eurofins Pharma Discovery Services UK Limited (Kinase Profiler screening platform)
T10 sequence (O43293 whole entry): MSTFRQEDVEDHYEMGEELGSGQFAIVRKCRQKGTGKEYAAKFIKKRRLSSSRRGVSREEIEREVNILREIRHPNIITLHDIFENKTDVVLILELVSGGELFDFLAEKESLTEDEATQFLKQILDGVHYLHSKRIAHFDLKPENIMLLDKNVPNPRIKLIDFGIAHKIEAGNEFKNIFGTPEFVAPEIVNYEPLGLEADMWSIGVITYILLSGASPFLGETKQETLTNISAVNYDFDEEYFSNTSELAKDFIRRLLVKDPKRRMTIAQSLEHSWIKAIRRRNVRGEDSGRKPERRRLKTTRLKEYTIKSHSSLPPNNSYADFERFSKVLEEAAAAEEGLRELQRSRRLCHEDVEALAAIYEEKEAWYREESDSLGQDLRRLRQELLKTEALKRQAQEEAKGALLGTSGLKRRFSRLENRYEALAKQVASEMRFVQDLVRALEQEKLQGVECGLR
From the text: as §1

PDGFRα = molecular target: T11, PDGFRα (Homo sapiens, UniProt P16234); assay: Eurofins Kinase Profiler panel; format: biochemical; details: read-out: % inhibition (1μM), DMSO control=100%, lower=stronger
T11 construct: purchased Eurofins Pharma Discovery Services UK Limited (Kinase Profiler screening platform)
From the text: as §1

CaMKIIβ = molecular target: T12, CaMKIIβ (Homo sapiens, UniProt Q13554); assay: Eurofins Kinase Profiler panel; format: biochemical; details: read-out: % inhibition (1μM), DMSO control=100%, lower=stronger
T12 construct: purchased Eurofins KinaseProfiler (Eurofins Pharma Discovery Services UK, Dundee); JAK3 also ChemPartner
From the text: as §1

PKCθ = molecular target: T13, PKCθ (Homo sapiens, UniProt Q04759); assay: Eurofins Kinase Profiler panel; format: biochemical; details: read-out: % inhibition (1μM), DMSO control=100%, lower=stronger
T13 construct: purchased Eurofins KinaseProfiler (Eurofins Pharma Discovery Services UK, Dundee); JAK3 also ChemPartner
T13 sequence (Q04759 whole entry): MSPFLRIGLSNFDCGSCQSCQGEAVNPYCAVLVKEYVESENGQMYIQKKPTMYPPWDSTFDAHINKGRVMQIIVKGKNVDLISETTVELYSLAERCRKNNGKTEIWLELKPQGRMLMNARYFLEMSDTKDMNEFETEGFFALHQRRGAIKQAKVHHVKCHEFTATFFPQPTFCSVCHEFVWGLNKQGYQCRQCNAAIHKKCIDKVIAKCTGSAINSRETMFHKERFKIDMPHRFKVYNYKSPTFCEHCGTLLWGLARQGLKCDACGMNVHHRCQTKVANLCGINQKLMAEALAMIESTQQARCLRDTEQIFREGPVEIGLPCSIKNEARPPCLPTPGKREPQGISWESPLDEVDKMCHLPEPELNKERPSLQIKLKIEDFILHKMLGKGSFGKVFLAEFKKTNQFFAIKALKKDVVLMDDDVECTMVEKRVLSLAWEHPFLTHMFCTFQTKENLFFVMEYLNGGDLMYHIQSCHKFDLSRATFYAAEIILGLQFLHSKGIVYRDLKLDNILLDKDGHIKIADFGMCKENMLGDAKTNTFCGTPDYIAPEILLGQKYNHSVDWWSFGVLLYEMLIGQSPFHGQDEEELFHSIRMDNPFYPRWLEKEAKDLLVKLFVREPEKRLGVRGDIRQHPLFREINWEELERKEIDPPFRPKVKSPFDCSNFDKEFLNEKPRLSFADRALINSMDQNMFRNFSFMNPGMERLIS
From the text: as §1

Syk = molecular target: T14, Syk (Homo sapiens, UniProt P43405); assay: Eurofins Kinase Profiler panel; format: biochemical; details: read-out: % inhibition (1μM), DMSO control=100%, lower=stronger
T14 construct: Eurofins Pharma Discovery Services UK Limited (Kinase Profiler service)
From the text: as §1

CDK6 = molecular target: T15, CDK6 (Homo sapiens, UniProt Q00534); assay: Eurofins Kinase Profiler panel; format: biochemical; details: read-out: % inhibition (1μM), DMSO control=100%, lower=stronger
T15 construct: purchased Eurofins KinaseProfiler (Eurofins Pharma Discovery Services UK, Dundee); JAK3 also ChemPartner
T15 sequence (Q00534 whole entry): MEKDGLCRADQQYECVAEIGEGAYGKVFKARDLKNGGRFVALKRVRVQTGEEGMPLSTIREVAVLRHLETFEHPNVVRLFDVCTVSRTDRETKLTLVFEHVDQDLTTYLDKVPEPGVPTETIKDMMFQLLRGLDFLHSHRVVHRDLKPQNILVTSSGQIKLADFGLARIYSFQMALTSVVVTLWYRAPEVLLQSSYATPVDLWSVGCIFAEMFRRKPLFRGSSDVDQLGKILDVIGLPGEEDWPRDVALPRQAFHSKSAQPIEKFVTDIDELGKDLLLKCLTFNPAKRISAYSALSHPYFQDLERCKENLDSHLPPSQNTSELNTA
T15 sequence (P30281 whole entry partner): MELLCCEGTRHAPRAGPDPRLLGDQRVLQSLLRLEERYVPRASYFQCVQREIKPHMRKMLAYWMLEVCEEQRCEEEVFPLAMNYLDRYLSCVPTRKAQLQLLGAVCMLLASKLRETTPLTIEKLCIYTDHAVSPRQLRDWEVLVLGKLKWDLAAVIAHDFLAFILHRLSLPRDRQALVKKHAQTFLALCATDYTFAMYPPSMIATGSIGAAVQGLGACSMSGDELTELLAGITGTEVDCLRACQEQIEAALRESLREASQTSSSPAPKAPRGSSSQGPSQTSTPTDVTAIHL
From the text: as §1

DYRK1B = molecular target: T16, DYRK1B (Homo sapiens, UniProt Q9Y463); assay: Eurofins Kinase Profiler panel; format: biochemical; details: read-out: % inhibition (1μM), DMSO control=100%, lower=stronger
T16 construct: Eurofins Pharma Discovery Services UK Limited (Kinase Profiler service)
From the text: as §1

PKBα = molecular target: T17, PKBα (Homo sapiens, UniProt P31749); assay: Eurofins Kinase Profiler panel; format: biochemical; details: read-out: % inhibition (1μM), DMSO control=100%, lower=stronger
T17 construct: purchased Eurofins KinaseProfiler (Eurofins Pharma Discovery Services UK, Dundee); JAK3 also ChemPartner
From the text: as §1

SGK = molecular target: T18, SGK (Homo sapiens, UniProt O00141); assay: Eurofins Kinase Profiler panel; format: biochemical; details: read-out: % inhibition (1μM), DMSO control=100%, lower=stronger
T18 construct: purchased Eurofins KinaseProfiler (Eurofins Pharma Discovery Services UK, Dundee); JAK3 also ChemPartner
T18 sequence (O00141 whole entry): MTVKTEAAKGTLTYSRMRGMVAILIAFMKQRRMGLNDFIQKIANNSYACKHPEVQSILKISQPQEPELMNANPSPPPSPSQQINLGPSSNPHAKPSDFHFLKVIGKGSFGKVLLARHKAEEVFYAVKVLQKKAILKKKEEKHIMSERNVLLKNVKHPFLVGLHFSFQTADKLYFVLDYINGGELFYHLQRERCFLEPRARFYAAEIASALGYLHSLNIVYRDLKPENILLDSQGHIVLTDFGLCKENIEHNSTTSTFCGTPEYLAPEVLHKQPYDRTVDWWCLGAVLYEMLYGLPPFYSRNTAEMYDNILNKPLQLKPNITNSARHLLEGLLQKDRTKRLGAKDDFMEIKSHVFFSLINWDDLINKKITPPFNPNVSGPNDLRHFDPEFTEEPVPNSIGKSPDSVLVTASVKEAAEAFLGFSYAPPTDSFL
From the text: as §1

MSK1 = molecular target: T19, MSK1 (Homo sapiens, UniProt O75582); assay: Eurofins Kinase Profiler panel; format: biochemical; details: read-out: % inhibition (1μM), DMSO control=100%, lower=stronger
T19 construct: purchased Eurofins Pharma Discovery Services UK Limited (Kinase Profiler screening platform)
T19 sequence (O75582 whole entry): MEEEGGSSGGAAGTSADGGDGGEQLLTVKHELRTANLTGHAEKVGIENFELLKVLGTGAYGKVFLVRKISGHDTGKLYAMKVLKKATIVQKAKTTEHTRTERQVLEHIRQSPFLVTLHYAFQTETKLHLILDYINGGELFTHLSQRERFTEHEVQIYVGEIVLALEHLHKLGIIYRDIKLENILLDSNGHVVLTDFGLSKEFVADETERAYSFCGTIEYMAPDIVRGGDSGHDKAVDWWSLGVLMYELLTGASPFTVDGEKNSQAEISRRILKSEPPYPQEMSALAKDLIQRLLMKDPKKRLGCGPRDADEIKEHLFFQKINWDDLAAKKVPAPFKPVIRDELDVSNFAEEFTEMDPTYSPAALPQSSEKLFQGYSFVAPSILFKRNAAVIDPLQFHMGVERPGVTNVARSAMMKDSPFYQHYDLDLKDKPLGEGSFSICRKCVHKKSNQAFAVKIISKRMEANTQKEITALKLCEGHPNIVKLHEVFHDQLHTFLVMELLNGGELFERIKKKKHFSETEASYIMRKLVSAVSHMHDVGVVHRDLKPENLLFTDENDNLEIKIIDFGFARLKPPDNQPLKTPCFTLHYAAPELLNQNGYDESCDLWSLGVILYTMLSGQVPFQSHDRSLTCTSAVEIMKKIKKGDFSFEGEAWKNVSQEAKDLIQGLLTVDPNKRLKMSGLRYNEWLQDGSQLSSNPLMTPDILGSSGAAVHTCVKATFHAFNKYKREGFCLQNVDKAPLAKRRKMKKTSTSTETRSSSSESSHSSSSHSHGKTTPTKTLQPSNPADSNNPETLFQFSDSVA
From the text: as §1

CK1 = assay: Eurofins Kinase Profiler panel; format: biochemical; details: read-out: % inhibition (1μM), DMSO control=100%, lower=stronger
From the text: as §1

[1] = tested on: cytokine gene transcription in joint tissue of CIA mice; assay: Cytokine gene expression in joints of CIA mice by RT-PCR; format: in vivo, mouse

C=CC(=O)N[C@@H]1CCCN(c2ncnc3[nH]ccc23)C1 [RB1]
activity at 1 µM (DYRK1A): 91% | activity at 1 µM (Pim-2): 98% | activity at 1 µM (Flt1): 93% | activity at 1 µM (SAPK2b): 103% | activity at 1 µM (Ret): 86% | activity at 1 µM (TrkA): 46% | activity at 1 µM (Plk3): 99% | activity at 1 µM (PKCζ): 106% | activity at 1 µM (NEK2): 99% | activity at 1 µM (ZIPK): 107% | activity at 1 µM (PDGFRα): 96% | activity at 1 µM (CaMKIIβ): 85% | activity at 1 µM (PKCθ): 80% | activity at 1 µM (Syk): 104% | activity at 1 µM (CDK6): 100% | activity at 1 µM (DYRK1B): 86% | activity at 1 µM (PKBα): 94% | activity at 1 µM (SGK): 92% | activity at 1 µM (MSK1): 74% | activity (CK1): 82% | IL-10 expression [1]: significantly increased its expression | gene transcription levels of IL-1, IL-2 and IL-6 [1]: dose-dependently reduced | TNF-α and IFN-γ gene transcription levels ([1]; p < 0.01): significantly reduced
